Experiment: xn = mol fraction of the nth substance listed
Settings: Fluid (supercritical or subcritical phases), Taylor dispersion method, x1 = 0

| binary diffusion coefficient (313.16 K, 15000 kPa) [m2/s] | binary diffusion coefficient (313.16 K, 20000 kPa) [m2/s] | binary diffusion coefficient (313.16 K, 25000 kPa) [m2/s] | binary diffusion coefficient (313.16 K, 30000 kPa) [m2/s] | binary diffusion coefficient (313.16 K, 35000 kPa) [m2/s] | binary diffusion coefficient (323.16 K, 15000 kPa) [m2/s] | binary diffusion coefficient (323.16 K, 20000 kPa) [m2/s] | binary diffusion coefficient (323.16 K, 25000 kPa) [m2/s] | binary diffusion coefficient (323.16 K, 30000 kPa) [m2/s] | binary diffusion coefficient (323.16 K, 35000 kPa) [m2/s] | binary diffusion coefficient (333.16 K, 15000 kPa) [m2/s] | binary diffusion coefficient (333.16 K, 20000 kPa) [m2/s] | binary diffusion coefficient (333.16 K, 25000 kPa) [m2/s] | binary diffusion coefficient (333.16 K, 30000 kPa) [m2/s] | binary diffusion coefficient (333.16 K, 35000 kPa) [m2/s] | SMILES |
| --- | --- | --- | --- | --- | --- | --- | --- | --- | --- | --- | --- | --- | --- | --- | --- |
| 8.97e-09 | 8.05e-09 | 7.39e-09 | 6.95e-09 | 6.58e-09 | 1.06e-08 | 9.25e-09 | 8.65e-09 | 7.83e-09 | 7.5e-09 | 1.15e-08 | 1.08e-08 | 9.59e-09 | 8.92e-09 | 8.29e-09 | CC(=O)CCc1ccccc1 [4-phenyl-2-butanone] + O=C=O |
| 9.29e-09 | 7.69e-09 | 6.96e-09 | 6.37e-09 | 6.1e-09 | 1.14e-08 | 9.08e-09 | 8.03e-09 | 7.39e-09 | 6.91e-09 | 1.21e-08 | 1.04e-08 | 9.19e-09 | 8.32e-09 | 7.9e-09 | C=CCc1ccc(O)c(OC)c1 [2-hydroxy-5-allylanisole] + O=C=O |
| 1.05e-08 | 8.06e-09 | 7.53e-09 | 6.82e-09 | 6.7e-09 | 1.3e-08 | 1.01e-08 | 8.65e-09 | 7.82e-09 | 7.25e-09 | 1.49e-08 | 1.19e-08 | 9.82e-09 | 8.78e-09 | 8.36e-09 | CCOC(=O)c1ccccc1 [ethyl benzoate] + O=C=O |

From the NIST ThermoML archive (doi:10.1021/je700646e)
